{"source": "patent US20200171165A1", "about": "“ENHANCED TARGETED DELIVERY OF THERAPEUTIC AGENTS” (Proteogenomics Research Institute for Systems Medicine, priority 2018, published 2020)", "key": {"mammary tumors (N202)": {"tested_on": "mammary tumors (N202)", "assay": "IVM ectopic-orthotopic (EO) mammary tumor model, spheroids in dorsal skin window chambers: tumor growth", "description": "We used the classic IVM tumor model with modifications (Asaishi et al., 1981; Endrich et al., 1980; Vajkoczy et al., 2000). The mice, usually athymic nude mice (25-30 g body weight), were anesthetized (7.3 mg ketamine hydrochloride and 2.3 mg xylazine per 100 g body weight, intraperitoneal injection) and placed on a heating pad. A titanium frame was placed onto the dorsal skinfold of mice to sandwich the extended double layer of skin. A 15 mm diameter full-thickness circular layer of skin was then excised. The superficial fascia on top of the remaining skin was carefully removed to expose the underlying muscle and subcutaneous tissue which was then covered with another titanium frame with a glass coverslip to form the window chamber. After a recovery period of 1-2 days, tumor spheroids were implanted.\nTumor spheroids were formed by plating 50,000 cells onto 1% agar-coated 96-well non-tissue culture treated flat bottom dishes (20 μl cells in 100 μl medium) and centrifuging 4 times at 2000 rpm for 15 min, rotating the dish after every centrifugation. The cells were incubated an additional 3-7 days (depending on cell type) at 37° C. in 5% CO2 in air to form tight spheroids. BT-474 cells required 500,000 cells in the presence of Matrigel (BD Bioscience, San Diego) (1:1 cell volume dilution) to form spheroids in culture. […]\nTumors were imaged using intravital fluorescence microscopy, as described (Borgstrom et al., 2013; Oh et al., 2007; Oh et al., 2014). Tumor growth was analyzed off-line from the recorded, digital, grayscale 0-to-256 images using Image-Pro Plus (Media Cybernetics, Bethesda, Md.). Tumor growth was determined in 2 ways, by measuring the area with fluorescence signal from the GFP or CFP expressing tumor cells or by quantifying the cumulative fluorescence signal for the tumor over time. Tumor area is measured by counting the number of pixels with a grayscale intensity above 75, thereby making it easier to reliably follow irregularly shaped tumors. The cumulative tumor fluorescence signal was measured by signal summation of all pixels over 75. […]"}, "[1]": {"tested_on": "HER2/neu spontaneous mammary tumors", "assay": "HER2/neu transgenic spontaneous mammary tumor model: survival and toxicity", "type": "in vivo, mouse", "details": "single IV dose 5 mg/kg", "from_the_text": "We also performed a pilot efficacy study of hAnnA1-CMD-Pt(II) in a genetically engineered mouse HER2/neu model that develops spontaneous mammary tumors (GuyWebster et al., 1992; Reilly et al., 2000)."}}}
{"smiles": "CC(=O)O[C@@]12CO[C@@H]1C[C@H](O)[C@@]1(C)C(=O)[C@H](O)C3=C(C)[C@@H](OC(=O)[C@H](O)[C@@H](NC(=O)OC(C)(C)C)c4ccccc4)C[C@@](O)([C@@H](OC(=O)c4ccccc4)[C@H]21)C3(C)C", "note": "[docetaxel]", "values": [{"measurement": "Tumor response", "setting": "mammary tumors (N202); unconjugated drug 5 mg/kg", "result": "produced less benefit"}]}
{"smiles": "N.N.[Cl][Pt][Cl]", "note": "[cisplatin]", "values": [{"measurement": "Mean extension in survival vs untreated controls", "setting": "[1]", "result": 30, "unit": "days"}]}
{"smiles": "COc1cccc2c1C(=O)c1c(O)c3c(c(O)c1C2=O)C[C@@](O)(C(=O)CO)C[C@@H]3O[C@H]1C[C@H](N)[C@H](O)[C@H](C)O1", "note": "[free doxorubicin, doxorubicin]", "values": [{"measurement": "Tumor response (IVM)", "setting": "mammary tumors (N202); free drug 1 mg/kg", "result": "no effect"}, {"measurement": "Tumor response (IVM)", "setting": "mammary tumors (N202); free drug 5 mg/kg (near MTD)", "result": "slowed tumor growth modestly"}]}
